According to patent US20240124442A1, “TRICYCLIC-AMIDO-BICYCLIC PRMT5 INHIBITORS” (AMGEN INC., priority 2021, published 2024):

Legend:
[1] = tested on: HCT116 MTAP null cells; test: HCT116 MTAP null cell line proliferation / cell viability (CellTiter-Glo, 6 days); format: cell-based; conditions: 144 h; HCT116 MTAP null cells, 6 days treatment, CellTiter-Glo cell viability; read-out: HCT-116 MTAP null IC50
Summary of the method: (§1)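 Isogenic HCT116 pair (parental and MTAP-knockout) in RPMI 1640 + 10% FBS, treated 6 days with 8–9-point 1:3 dilutions from 1 or 10 μM top, or 22-point 1:2 dilutions from 10 or 50 μM top. Viability by CellTiter-Glo luminescence; IC50 from 4-parameter logistic fit or sigmoidal fit with Hill slope fixed at −1.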

[2] = tested on: HCT116 WT cells; test: HCT116 WT (parent) cell line proliferation / cell viability (CellTiter-Glo, 6 days); format: cell-based; conditions: Homo sapiens, HCT-116, 144 h, 6 days treatment
Summary of the method: as §1

SMILES	IC50 [1]	IC50 [2]
CN(C(=O)c1cc2c3c(c(N)nc2cn1)COC3)C1COc2cc(C(F)(F)F)cc(F)c21 (racemic) [Example 455, 4-amino-N-((3R)-4-fluoro-6-(trifluoromethyl)-2,3-dihydro-1-benzofuran-3-yl)-N-methyl-1,3-dihydrofuro[3,4-c][1,7]naphthyridine-8-carboxamide and 4-amino-N-((3S)-4-fluoro-6-(trifluoromethyl)-2,3-dihydro-1-benzofuran-3-yl)-N-methyl-1,3-dihydrofuro[3,4-c][1,7]naphthyridine-8-carboxamide]	122 nM	5620 nM
CN(C(=O)c1cc2c3c(c(N)nc2cn1)COC3)[C@H]1COc2cc(Cl)ccc21 (single isomer, unassigned) [Example 334]	11900 nM	50000 nM
CN(C(=O)c1ccc2nc(N)c3c(c2c1)COC3)[C@H]1COc2cc(C(F)(F)F)cc(F)c21 (single isomer, unassigned) [Example 326]	1780 nM	20600 nM
CN(C(=O)c1cc2c3c(c(N)nc2cn1)COC3)[C@@H]1COCc2cc(Br)ccc21 (single isomer, unassigned) [Example 398]	20 nM	911 nM
COc1ccc2c(c1)COC[C@H]2N(C)C(=O)c1cc2c3c(c(N)nc2cn1)COC3 (single isomer, unassigned) [Example 582]	76 nM	5580 nM
CN(C(=O)c1cc2c3c(c(N)nc2cn1)COC3)[C@@H]1COc2cc(OC(F)(F)F)ccc21 [Example 206, 4-amino-N-methyl-N-((3S)-6-(trifluoromethoxy)-2,3-dihydro-1-benzofuran-3-yl)-1,3-dihydrofuro[3,4-c][1,7]-naphthyridine-8-carboxamide]	100 nM	9790 nM
CN(C(=O)c1cc2c3c(c(N)nc2cc1Cl)COC3)[C@H]1COc2cc(C(F)(F)F)ncc21 (single isomer, unassigned) [Example 362]	744 nM	35600 nM
CN(C(=O)c1cc2c(cn1)nc(N)c1c2cnn1C)[C@@H]1COc2cc(S(F)(F)(F)(F)F)ccc21 [Example 257, 4-amino-N,3-dimethyl-N-((3S)-6-(pentafluoro-lambda~6~-sulfanyl)-2,3-dihydro-1-benzofuran-3-yl)-3H-pyrazolo[3,4-c][1,7]naph-thyridine-8-carboxamide]	59 nM	2020 nM
CN(C(=O)c1cc2c(cc1F)nc(N)c1c2cnn1C)[C@@H]1COCc2c1ccc(F)c2F (single isomer, unassigned) [Example 605]	285 nM	26400 nM
CN(C(=O)c1cc2c3c(c(N)nc2cc1F)COC3)[C@@H]1COCc2cc(S(C)(=O)=O)ccc21 (single isomer, unassigned) [Example 591]	26 nM	1600 nM
C[C@H]1OCc2c1c(N)nc1ccc(C(=O)N(C)[C@@H]3COCc4cc(Br)ccc43)cc21 (single isomer, unassigned) [Example 394]	25 nM	1440 nM

Now from value to compound:

IC50 [1]	IC50 [2]	SMILES
6 nM	161 nM	CN(C(=O)c1cc2c(cc1C(F)(F)F)nc(N)c1cnn(C)c12)[C@@H]1COCc2cc(C(F)(F)F)ccc21 [Example 302, 4-amino-N,1-dimethyl-7-(trifluoromethyl)-N-((4S)-7-(trifluoromethyl)-3,4-dihydro-1H-2-benzopyran-4-yl)-1H-pyrazolo[4,3-c]quinoline-8-carboxamide]
10 nM	1000 nM	CN(C(=O)c1ccc2nc(N)c3cnn(C)c3c2c1)[C@@H]1COc2cc(-c3cc(C(F)(F)F)nn3C)ccc21 [Example 654, 4-amino-N,1-dimethyl-N-((3S)-6-(1-methyl-3-(trifluoromethyl)-1H-pyrazol-5-yl)-2,3-dihydro-1-benzofuran-3-yl)-1H-pyrazolo[4,3-c]quinoline-8-carboxamide]
5 nM	45 nM	CN(C(=O)c1cc2c(cc1Cl)nc(N)c1cnn(C)c12)[C@@H]1COc2cc(OC(F)(F)F)ccc21 [Example 481, 4-amino-7-chloro-N,1-dimethyl-N-((3S)-6-(trifluoromethoxy)-2,3-dihydro-1-benzofuran-3-yl)-1H-pyrazolo[4,3-c]quinoline-8-carboxamide]
1 nM	19 nM	C[C@H]1OC[C@@H](N(C)C(=O)c2ccc3nc(N)c4cnn(C)c4c3c2)c2ccc(C(F)(F)F)cc21 (single isomer, unassigned) [Example 414]
16 nM	357 nM	CN(C(=O)c1cc2c(cn1)nc(N)c1cnn(C)c12)[C@@H]1COCc2nc(C(F)(F)F)ccc21 [Example 289, 4-amino-N,1-dimethyl-N-((5S)-2-(trifluoromethyl)-5,8-dihydro-6H-pyrano[3,4-b]pyridin-5-yl)-1H-pyrazolo[4,3-c][1,7]naph-thyridine-8-carboxamide]
265 nM	7740 nM	CCN(C(=O)c1ccc2nc(N)c3cnn(C)c3c2c1)[C@H]1COc2cc(C(F)(F)F)ccc21 [Example 229, 4-amino-N-ethyl-1-methyl-N-((3R)-6-(trifluoromethyl)-2,3-dihydro-1-benzofuran-3-yl)-1H-pyrazolo[4,3-c]quinoline-8-carboxamide]
29 nM	2320 nM	CN(C(=O)c1ccc2nc(N)c3cnn(C)c3c2c1)[C@@H]1COc2cc(C3COC3)ccc21 [Example 625, 4-amino-N,1-dimethyl-N-((3S)-6-(3-oxetanyl)-2,3-dihydro-1-benzofuran-3-yl)-1H-pyrazolo[4,3-c]quinoline-8-carboxamide]
327 nM	16000 nM	C[C@@H]1OC[C@@H](N(C)C(=O)c2ccc3nc(N)c4c(cnn4C)c3c2)c2ccc(C(F)(F)F)cc21 (single isomer, unassigned) [Example 603]
18 nM	1040 nM	CN(C(=O)c1ccc2nc(N)c3cnn(C)c3c2c1)[C@@H]1COc2cc(-c3cccnc3C(F)(F)F)ccc21 [Example 649, 4-amino-N,1-dimethyl-N-((3S)-6-(2-(trifluoromethyl)-3-pyridinyl)-2,3-dihydro-1-benzofuran-3-yl)-1H-pyrazolo[4,3-c]quinoline-8-carboxamide]
